# Assays:
# [1] = target: Dual specificity tyrosine-phosphorylation-regulated kinase 1A (Homo sapiens, UniProt Q13627); assay: Inhibition of DYRK1A (unknown origin) using substrate after 30 mins in presence of [gamma-33P]ATP by liquid scintillation counting
# [2] = target: T1, Dual specificity protein kinase CLK1 (Homo sapiens, UniProt P49759); assay: Inhibition of human CLK1 using substrate after 30 mins in presence of [gamma-33P]ATP by liquid scintillation counting
# [3] = target: Glycogen synthase kinase-3 (Homo sapiens, UniProt P49840+P49841); assay: Inhibition of GSK3 alpha/beta (unknown origin) using substrate after 30 mins in presence of [gamma-33P]ATP by liquid scintillation counting; assay type: protein assay
# [4] = Inhibition of GSK3 (unknown origin) using substrate after 30 mins in presence of [gamma-33P]ATP by liquid scintillation counting; set-up: species or system Homo sapiens
# CDK9/cyclin T1 = CDK9/cyclin T1 (Homo sapiens, UniProt P50750); assay: Inhibition of CDK9/CyclinT (unknown origin) using substrate after 30 mins in presence of [gamma-33P]ATP by liquid scintillation counting; assay type: protein-complex assay
# [5] = Inhibition of Trypanosoma brucei GSK3 using Biotin-labeled GSP-2 peptide substrate after 90 mins in presence of [gamma33-P]ATP by scintillation proximity assay
# [6] = Inhibition of Leishmania major strain Friedlin endogenous GSK3 using Biotin-labeled GSP-2 peptide substrate after 90 mins in presence of [gamma33-P]ATP by scintillation proximity assay
# [7] = Inhibition of Leishmania infantum MHOM/BR/82/BA-2 N-terminal His6-tagged GSK3 expressed in Escherichia coli BL21(DE3) using Biotin-labeled GSP-2 peptide substrate after 90 mins in presence of [gamma33-P]ATP by scintillation proximity assay
# [8] = target: T1, Dual specificity protein kinase CLK1; assay: Inhibition of human CLK1 (148 to 484 residues) expressed in Escherichia coli BL21(DE3) preincubated for 10 mins followed by AFRREWSPGKEAKK substrate addition by pyruvate kinase and lactate dehydrogenase coupled enzyme assay
# [9] = Inhibition of Leishmania major strain Friedlin fusion protein GSK3 using Biotin-labeled GSP-2 peptide substrate after 90 mins in presence of [gamma33-P]ATP by scintillation proximity assay
# [10] = Inhibition of Leishmania major strain Friedlin N-terminal His6-tagged GSK3 expressed in Escherichia coli BL21(DE3) using Biotin-labeled GSP-2 peptide substrate after 90 mins in presence of [gamma33-P]ATP by scintillation proximity assay
# [11] = target: Vascular endothelial growth factor receptor 2 (Homo sapiens, UniProt P35968); assay: Inhibition of VEGFR2 (unknown origin) using substrate after 30 mins in presence of [gamma-33P]ATP by liquid scintillation counting
# Chain of Vascular endothelial growth factor receptor 2 (P35968 whole entry): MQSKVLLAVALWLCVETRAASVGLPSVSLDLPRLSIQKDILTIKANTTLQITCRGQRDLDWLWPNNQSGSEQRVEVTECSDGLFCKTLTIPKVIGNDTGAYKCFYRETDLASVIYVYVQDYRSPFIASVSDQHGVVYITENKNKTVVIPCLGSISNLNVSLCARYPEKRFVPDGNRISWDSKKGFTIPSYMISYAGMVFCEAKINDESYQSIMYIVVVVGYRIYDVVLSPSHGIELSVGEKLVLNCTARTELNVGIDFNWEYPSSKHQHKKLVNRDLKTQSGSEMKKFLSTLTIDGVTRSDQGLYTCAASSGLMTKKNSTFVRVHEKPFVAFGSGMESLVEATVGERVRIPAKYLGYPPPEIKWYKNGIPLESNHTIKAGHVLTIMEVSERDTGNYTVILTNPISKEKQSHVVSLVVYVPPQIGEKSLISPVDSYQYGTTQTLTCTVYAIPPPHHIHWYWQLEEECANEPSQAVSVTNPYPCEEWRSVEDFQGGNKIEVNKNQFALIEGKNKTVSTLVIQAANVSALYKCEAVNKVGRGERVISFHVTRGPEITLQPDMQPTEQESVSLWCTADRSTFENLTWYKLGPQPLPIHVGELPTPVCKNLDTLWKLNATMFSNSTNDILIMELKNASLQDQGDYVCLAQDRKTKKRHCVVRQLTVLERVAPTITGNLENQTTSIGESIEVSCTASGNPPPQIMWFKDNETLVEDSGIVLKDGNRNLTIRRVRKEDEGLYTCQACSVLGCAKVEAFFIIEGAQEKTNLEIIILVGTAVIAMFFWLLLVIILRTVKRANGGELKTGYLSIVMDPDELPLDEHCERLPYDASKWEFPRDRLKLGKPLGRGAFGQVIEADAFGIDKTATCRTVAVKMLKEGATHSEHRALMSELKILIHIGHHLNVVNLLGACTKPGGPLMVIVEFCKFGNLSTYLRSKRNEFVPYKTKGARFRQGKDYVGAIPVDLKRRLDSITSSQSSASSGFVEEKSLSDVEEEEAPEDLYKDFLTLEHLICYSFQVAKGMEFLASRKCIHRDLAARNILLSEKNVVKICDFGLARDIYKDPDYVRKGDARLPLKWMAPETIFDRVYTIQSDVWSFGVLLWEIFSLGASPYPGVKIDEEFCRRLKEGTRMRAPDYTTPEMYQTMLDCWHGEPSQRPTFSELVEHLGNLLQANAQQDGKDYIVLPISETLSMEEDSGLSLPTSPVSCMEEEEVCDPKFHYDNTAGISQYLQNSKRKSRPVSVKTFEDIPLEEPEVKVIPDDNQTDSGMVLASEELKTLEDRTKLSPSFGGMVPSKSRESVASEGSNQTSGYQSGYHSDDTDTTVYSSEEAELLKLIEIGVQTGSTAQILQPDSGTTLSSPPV
# T1 sequence (P49759 whole entry): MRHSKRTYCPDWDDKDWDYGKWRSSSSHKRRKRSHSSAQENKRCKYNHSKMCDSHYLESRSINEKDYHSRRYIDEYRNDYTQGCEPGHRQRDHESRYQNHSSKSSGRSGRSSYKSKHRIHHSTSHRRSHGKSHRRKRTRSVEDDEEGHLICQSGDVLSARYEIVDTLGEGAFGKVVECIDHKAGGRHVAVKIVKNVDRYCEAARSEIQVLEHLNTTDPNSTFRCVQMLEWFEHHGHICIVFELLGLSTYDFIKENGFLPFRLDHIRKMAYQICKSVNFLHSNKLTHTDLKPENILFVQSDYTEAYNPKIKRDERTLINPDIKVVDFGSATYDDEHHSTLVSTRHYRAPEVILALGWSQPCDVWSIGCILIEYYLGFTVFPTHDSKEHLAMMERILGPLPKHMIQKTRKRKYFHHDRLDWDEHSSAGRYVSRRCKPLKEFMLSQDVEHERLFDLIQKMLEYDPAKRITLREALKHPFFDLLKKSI
# Chain of CDK9/cyclin T1 (O60563 whole entry): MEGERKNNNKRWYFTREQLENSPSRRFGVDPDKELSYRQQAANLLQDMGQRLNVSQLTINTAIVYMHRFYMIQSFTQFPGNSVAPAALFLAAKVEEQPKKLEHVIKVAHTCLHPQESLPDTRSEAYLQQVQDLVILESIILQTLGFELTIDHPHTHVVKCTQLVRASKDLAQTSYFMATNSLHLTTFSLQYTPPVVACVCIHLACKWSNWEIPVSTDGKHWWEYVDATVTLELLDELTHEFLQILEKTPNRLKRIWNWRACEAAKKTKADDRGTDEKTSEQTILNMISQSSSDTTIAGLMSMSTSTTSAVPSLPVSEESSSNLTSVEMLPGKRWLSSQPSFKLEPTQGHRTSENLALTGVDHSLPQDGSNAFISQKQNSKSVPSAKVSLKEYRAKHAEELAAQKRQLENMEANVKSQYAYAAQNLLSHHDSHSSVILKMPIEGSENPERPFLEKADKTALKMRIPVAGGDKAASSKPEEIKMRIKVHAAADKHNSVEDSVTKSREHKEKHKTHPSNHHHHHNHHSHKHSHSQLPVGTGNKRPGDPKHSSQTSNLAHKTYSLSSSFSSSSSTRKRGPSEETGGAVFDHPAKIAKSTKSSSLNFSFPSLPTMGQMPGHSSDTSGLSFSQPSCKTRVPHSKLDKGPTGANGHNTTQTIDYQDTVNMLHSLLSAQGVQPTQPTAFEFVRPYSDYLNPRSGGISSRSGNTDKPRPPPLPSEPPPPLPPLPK
# Chain of CDK9/cyclin T1 (P50750 whole entry): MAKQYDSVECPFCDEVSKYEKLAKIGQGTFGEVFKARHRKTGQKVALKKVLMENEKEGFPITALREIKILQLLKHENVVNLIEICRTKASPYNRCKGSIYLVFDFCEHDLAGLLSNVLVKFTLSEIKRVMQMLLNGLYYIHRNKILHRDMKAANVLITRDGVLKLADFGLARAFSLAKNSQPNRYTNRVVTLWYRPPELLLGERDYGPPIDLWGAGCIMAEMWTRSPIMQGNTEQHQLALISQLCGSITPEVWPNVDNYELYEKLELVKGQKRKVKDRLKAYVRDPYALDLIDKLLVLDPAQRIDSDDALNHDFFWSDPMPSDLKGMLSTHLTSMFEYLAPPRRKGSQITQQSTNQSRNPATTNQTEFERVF
structure (smiles),measurement,setting,value
CCS(=O)(=O)c1ccc(OC)c(Nc2ncc(-c3cc4ccccc4s3)o2)c1,IC50,[1],500 nM
same,IC50,[2],30 nM
CCS(=O)(=O)c1ccc(OC)c(Nc2ncc(-c3ccc4cc(OC)ccc4c3)o2)c1,IC50,[1],1000 nM
same,IC50,[2],20 nM
CCS(=O)(=O)c1ccc(OC)c(Nc2ncc(/C=C/c3ccccc3)o2)c1,IC50,[1],7000 nM
same,IC50,[3],7500 nM
same,IC50,[2],40 nM
same,IC50,[4],4000 nM
same,IC50,CDK9/cyclin T1,200 nM
Nc1nc(Nc2ccc(S(N)(=O)=O)cc2)nn1C(=S)Nc1c(F)cccc1F,IC50,[5],120 nM
same,IC50,[6],180 nM
same,IC50,[7],260 nM
same,IC50,[8],8.9 nM
same,IC50,[9],150 nM
same,IC50,[10],320 nM
CCS(=O)(=O)c1ccc(OC)c(Nc2ncc(-c3ccc(CC#N)c(-c4ccccn4)c3)o2)c1,IC50,[2],80 nM
same,IC50,[11],23 nM
